Counter-ions that a name gives are not always drawn.
Tested on: SARS-CoV-2 beta variant
Experiment: […]; lung PCR and histopathology
Assay type: in vivo, BALB C mice

Row | Molecule | antiviral effect upon sole administration (Apilimod dimesylate alone) | antiviral effect of single drug (mouse, in vivo) | antiviral effect upon sole administration (Nafamostat mesylate alone) | reduction of infection (PCR) by single drug (mouse, in vivo)
1 | N-[(E)-(3-methylphenyl)methylidencamino]-6-morpholin-4-yl-2-(2-pyridin-2-ylethoxy)pyrimidin-4-amine [Apilimod dimesylate] | lack of antiviral effect | no antiviral effect | – | –
2 | N=C(N)c1ccc2cc(OC(=O)c3ccc(N=C(N)N)cc3)ccc2c1 [Nafamostat mesylate] | – | no effect | partial antiviral inhibitory effect | 5-10 fold

— patent US20250249012A1, “COMPOSITIONS AND METHODS FOR TREATING AND/OR PREVENTING A VIRAL INFECTION” (priority 2022, published 2025)
